Experimental data reported in patent publication US9802960B2 (MILLENNIUM PHARMACEUTICALS, INC., priority 2014, dated 2017).
Read-outs that look alike come from different tables or passages of the source.

Target: Human VPS34 (Homo sapiens (Human), UniProt Q8NEB9)
Assay: Human VPS34 enzyme assay (Adapta TR-FRET)
Type: biochemical
Details: read-out: Percent Inhibition

Chain of Human VPS34 (Q8NEB9 whole entry): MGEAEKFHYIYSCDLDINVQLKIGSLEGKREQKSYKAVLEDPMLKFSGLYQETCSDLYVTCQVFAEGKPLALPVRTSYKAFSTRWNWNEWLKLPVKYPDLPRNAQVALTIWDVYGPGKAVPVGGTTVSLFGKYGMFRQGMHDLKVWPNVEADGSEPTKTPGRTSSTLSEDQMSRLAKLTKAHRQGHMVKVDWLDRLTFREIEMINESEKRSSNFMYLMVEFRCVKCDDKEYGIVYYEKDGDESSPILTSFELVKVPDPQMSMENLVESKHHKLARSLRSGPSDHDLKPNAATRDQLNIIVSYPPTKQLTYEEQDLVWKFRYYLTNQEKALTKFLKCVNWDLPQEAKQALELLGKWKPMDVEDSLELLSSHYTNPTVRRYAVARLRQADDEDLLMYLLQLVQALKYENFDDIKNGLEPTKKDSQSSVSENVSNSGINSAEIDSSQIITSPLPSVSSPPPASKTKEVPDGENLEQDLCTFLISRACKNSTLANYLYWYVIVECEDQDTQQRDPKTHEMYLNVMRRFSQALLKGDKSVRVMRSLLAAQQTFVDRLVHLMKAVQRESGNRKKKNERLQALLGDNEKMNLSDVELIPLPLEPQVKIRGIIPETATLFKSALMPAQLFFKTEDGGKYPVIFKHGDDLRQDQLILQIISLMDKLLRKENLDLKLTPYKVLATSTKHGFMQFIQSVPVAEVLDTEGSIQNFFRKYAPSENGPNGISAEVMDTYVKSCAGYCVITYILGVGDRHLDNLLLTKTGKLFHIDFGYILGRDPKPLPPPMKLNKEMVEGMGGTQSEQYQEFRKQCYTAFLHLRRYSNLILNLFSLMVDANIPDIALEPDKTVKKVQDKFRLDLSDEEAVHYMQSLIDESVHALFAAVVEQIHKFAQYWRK

Row | Compound | inhibition at 1.11 µM (compound concentration 1.11 μM) [%] | inhibition at 1.11 µM [%]
1 | CC(=O)Nc1cc(-c2cnc(N)c(S(=O)(=O)Nc3ccc(F)cc3F)c2)ccn1 [Compound I-170, N-{6-amino-5-[(2,4-difluorophenyl)sulfamoyl]-3,4′-bipyridin-2′-yl}acetamide] | > 99 | 
2 | COC(=O)Nc1cc(-c2cnc(N)c(S(=O)(=O)N(C)C)c2)ccn1 [Compound I-171, Methyl [6-amino-5-(dimethylsulfamoyl)-3,4′-bipyridin-2′-yl]carbamate] | > 99 | 
3 | CC(=O)Nc1cc(-c2cnc(N)c(S(=O)(=O)Cc3ccccc3Cl)c2)ccn1 [Compound I-172, N-{6-amino-5-[(2-chlorobenzyl)sulfonyl]-3,4′-bipyridin-2′-yl}acetamide] |  | > 99
4 | CNc1ncc(-c2ccnc(NC(C)=O)c2)cc1S(=O)(=O)N(C(C)C)C(C)C [Compound I-173, N-[5-(diisopropylsulfamoyl)-6-(methylamino)-3,4′-bipyridin-2′-yl]acetamide] | > 99 | 
5 | CC(=O)Nc1cc(-c2cnc(N(C)C)c(C(=O)N(C)c3ccc(F)cc3F)c2)ccn1 [Compound I-174, 2′-Acetamido-N-(2,4-difluorophenyl)-6-(dimethylamino)-N-methyl-[3,4′-bipyridine]-5-carboxamide] | > 99 | 
6 | CC(=O)Nc1cc(-c2cnc3[nH]cc(S(=O)(=O)c4ccccc4)c3c2)ccn1 [Compound I-176, N-{4-[3-(phenylsulfonyl)-1H-pyrrolo[2,3-b]pyridin-5-yl]pyridin-2-yl}acetamide] | > 99 | 
7 | CC(=O)Nc1cc(-c2cnc(N)c(C(=O)Nc3cccc(F)c3F)c2)ccn1 [Compound I-179, 2′-acetamido-6-amino-N-(2,3-difluorophenyl)-3,4′-bipyridine-5-carboxamide] | > 99 | 
8 | COC(=O)Nc1cc(-c2cncc(C(=O)C3CC3)c2)ccn1 [Compound I-180, methyl[5-(cyclopropylcarbonyl)-3,4′-bipyridin-2′-yl]carbamate] | > 99 | 
9 | CC(=O)Nc1cc(-c2cnc(N)c(N3CCCS3(=O)=O)c2)ccn1 [Compound I-181, N-[6-amino-5-(1,1-dioxidoisothiazolidin-2-yl)-3,4′-bipyridin-2′-yl]acetamide] | > 99 | 
10 | CC(=O)Nc1cc(-c2cnc(N)c(S(=O)(=O)NCC3CCCCC3)c2)ccn1 [Compound I-183, N-{6-amino-5-[(cyclohexylmethyl)sulfamoyl]-3,4′-bipyridin-2′-yl}acetamide] | > 99 | 
11 | CC(=O)Nc1cc(-c2cnc(N)c(S(=O)(=O)N(C)C)c2)c(F)cn1 [Compound I-186] |  | > 99
12 | CC(=O)Nc1cc(-c2cnc(N)c(C(=O)NC34CC(C3)C4)c2)ccn1 [Compound I-187, 2′-acetamido-6-amino-N-(bicyclo[1.1.1]pent-1-yl)-3,4′-bipyridine-5-carboxamide] | > 99 | 
13 | CC(=O)Nc1cc(-c2cncc(/C=C/C(=O)c3ccc(F)cc3)c2)ccn1 [Compound I-188, N-{5-[(1E)-3-(4-fluorophenyl)-3-oxoprop-1-en-1-yl]-3,4′-bipyridin-2′-yl}acetamide] | 98 | 
14 | CC(=O)Nc1cc(-c2cncc(S(=O)(=O)NC34CC(C3)C4)c2)ccn1 [Compound I-190, N-[5-(bicyclo[1.1.1]pent-1-ylsulfamoyl)-3,4′-bipyridin-2′-yl]acetamide] | 96 | 
15 | CC(=O)Nc1cc(-c2cc(S(C)(=O)=O)c[n+]([O-])c2)ccn1 [Compound I-191, N-{4-[5-(methylsulfonyl)-1-oxidopyridin-3-yl]pyridin-2-yl}acetamide] | 77 | 
16 | CC(=O)Nc1cc(-c2cncc(N3CCCS3(=O)=O)c2)ccn1 [Compound I-192, N-[5-(1,1-dioxidoisothiazolidin-2-yl)-3,4′-bipyridin-2′-yl]acetamide] | > 99 | 
17 | COC(=O)Nc1cc(-c2cnc(C)c(NS(=O)(=O)c3ccc(F)cc3F)c2)ccn1 [Compound I-195, methyl (5-{[(2,4-difluorophenyl)sulfonyl]amino}-6-methyl-3,4′-bipyridin-2′-yl)carbamate] | > 99 | 
18 | CC(=O)Nc1cc(-c2cnc(C)c(NS(=O)(=O)c3ccc(C(F)(F)F)cc3Cl)c2)ccn1 [Compound I-196, N-[5-({[2-chloro-4-(trifluoromethyl)phenyl]sulfonyl}amino)-6-methyl-3,4′-bipyridin-2′-yl]acetamide] | > 99 | 
19 | CC(=O)Nc1cc(-c2cnc(N)c(S(=O)(=O)Cc3ccccc3F)c2)ccn1 [Compound I-197, N-{6-amino-5-[(2-fluorobenzyl)sulfonyl]-3,4′-bipyridin-2′-yl}acetamide] | > 99 | 
20 | CC(=O)Nc1cc(-c2cncc(C(=O)/C=C/c3ccc(F)cc3)c2)ccn1 [Compound I-198, N-{5-[(2E)-3-(4-fluorophenyl)prop-2-enoyl]-3,4′-bipyridin-2′-yl}acetamide] | 68 | 
21 | CC(=O)Nc1cc(-c2cnc3ccn(S(=O)(=O)C4CC4)c3c2)ccn1 [Compound I-199, N-{4-[1-(cyclopropylsulfonyl)-1H-pyrrolo[3,2-b]pyridin-6-yl]pyridin-2-yl}acetamide] | > 99 | 
22 | CC(=O)Nc1cc(-c2cnc(N)c(C(=O)N3CCC3)c2)ccn1 [Compound I-200, N-[6-amino-5-(azetidin-1-ylcarbonyl)-3,4′-bipyridin-2′-yl]acetamide] | > 99 | 
23 | CCc1ncc(-c2ccnc(NC(C)=O)c2)cc1NS(=O)(=O)c1ccc(F)cc1F [Compound I-201, N-(5-{[(2,4-difluorophenyl)sulfonyl]amino}-6-ethyl-3,4′-bipyridin-2′-yl)acetamide] | > 99 | 
24 | CC(=O)Nc1cc(-c2cncc(N(CC3CC3)S(C)(=O)=O)c2)ccn1 [Compound I-202, N-{5-[(cyclopropylmethyl)(methylsulfonyl)amino]-3,4′-bipyridin-2′-yl}acetamide] | > 99 | 
25 | CC(=O)Nc1cc(-c2cnc(N)c(S(=O)(=O)Cc3cccnc3)c2)ccn1 [Compound I-205, N-{6-amino-5-[(pyridin-3-ylmethyl)sulfonyl]-3,4′-bipyridin-2′-yl}acetamide] | > 99 | 
26 | CC(=O)Nc1cc(-c2cnc(N)c(S(=O)(=O)CC3CC3)c2)ccn1 [Compound I-208] |  | > 99
27 | CC(=O)Nc1cc(-c2cnc(N)c(C(=O)NC3CCOCC3)c2)ccn1 [Compound I-210, 2′-acetamido-6-amino-N-(tetrahydro-2H-pyran-4-yl)-3,4′-bipyridine-5-carboxamide] | > 99 | 

The next lines start with results.

Row | inhibition at 1.11 µM (compound concentration 1.11 μM) [%] | Compound | inhibition at 1.11 µM [%]
28 | > 99 | CC(=O)Nc1cc(-c2cnc(N)c(S(=O)(=O)C(C)C)c2)ccn1 [Compound I-175, N-[6-amino-5-(isopropylsulfonyl)-3,4′-bipyridin-2′-yl]acetamide] | 
29 | > 99 | CC(=O)Nc1cc(-c2cnc(C)c(NS(=O)(=O)c3ccc(F)cc3F)c2)c(C)cn1 [Compound I-177, N-(5-{[(2,4-difluorophenyl)sulfonyl]amino}-5′,6-dimethyl-3,4′-bipyridin-2′-yl)acetamide] | 
30 | > 99 | CC(=O)Nc1cc(-c2cnc(C)c(NS(=O)(=O)c3cc(C)ccc3C)c2)ccn1 [Compound I-178, N-(5-{[(2,5-dimethylphenyl)sulfonyl]amino}-6-methyl-3,4′-bipyridin-2′-yl)acetamide] | 
31 | > 99 | CC(=O)Nc1cc(-c2cnc(C)c(NS(=O)(=O)c3ccc(C)cc3F)c2)ccn1 [Compound I-182, N-(5-{[(2-fluoro-4-methylphenyl)sulfonyl]amino}-6-methyl-3,4′-bipyridin-2′-yl)acetamide] | 
32 | 74 | CC(=O)Nc1cc(-c2cncc(C=O)c2)ccn1 [Compound I-184, N-(5-formyl-3,4′-bipyridin-2′-yl)acetamide] | 
33 | > 99 | CC(=O)Nc1cc(-c2cnc(C)c(NS(=O)(=O)c3ccc(F)cc3)c2)ccn1 [Compound I-185, N-(5-{[(4-fluorophenyl)sulfonyl]amino}-6-methyl-3,4′-bipyridin-2′-yl)acetamide] | 
34 | > 99 | CC(=O)Nc1cc(-c2cnc3[nH]ncc3c2)ccn1 [Compound I-189, N-[4-(1H-pyrazolo[3,4-b]pyridin-5-yl)pyridin-2-yl]acetamide] | 
35 | > 99 | CC(=O)Nc1cc(-c2cnc(C)c(NC(C)=O)c2)ccn1 [Compound I-193, N,N′-(6-methyl-3,4′-bipyridine-2′,5-diyl)diacetamide] | 
36 | 62 | CC(=O)Nc1cc(-c2cncc(C(C)=O)c2)ccn1 [Compound I-194, N-(5-acetyl-3,4′-bipyridin-2′-yl)acetamide] | 
37 | > 99 | CC(=O)Nc1cc(-c2cnc(C)c(NS(=O)(=O)c3ccsc3)c2)ccn1 [Compound I-203, N-{6-methyl-5-[(3-thienylsulfonyl)amino]-3,4′-bipyridin-2′-yl}acetamide] | 
38 | > 99 | CC(=O)Nc1cc(-c2cnc(N)c(S(=O)(=O)Nc3cccnc3)c2)ccn1 [Compound I-204, N-[6-amino-5-(pyridin-3-ylsulfamoyl)-3,4′-bipyridin-2′-yl]acetamide] | 
39 | > 99 | CC(=O)Nc1cc(-c2cnc(C)c(NS(=O)(=O)c3ccc(F)cc3Cl)c2)ccn1 [Compound I-206, N-(5-{[(2-chloro-4-fluorophenyl)sulfonyl]amino}-6-methyl-3,4′-bipyridin-2′-yl)acetamide] | 
40 | > 99 | CC(=O)Nc1cc(-c2cnc(N)c(S(=O)(=O)Nc3ccc(Cl)cc3)c2)ccn1 [Compound I-207, N-{6-amino-5-[(4-chlorophenyl)sulfamoyl]-3,4′-bipyridin-2′-yl}acetamide] | 
41 | 49 | CC(=O)Nc1cc(-c2cnc3[nH]ncc3c2)c(C)cn1 [Compound I-209, N-[5-methyl-4-(1H-pyrazolo[3,4-b]pyridin-5-yl)pyridin-2-yl]acetamide] | 
42 | > 99 | CC(=O)Nc1cc(-c2cnc(C)c(NS(=O)(=O)c3ccccc3C)c2)ccn1 [Compound I-211, N-(6-methyl-5-{[(2-methylphenyl)sulfonyl]amino}-3,4′-bipyridin-2′-yl)acetamide] | 
43 | 95 | CC(=O)Nc1cc(-c2cnc(C)c(N(C)S(=O)(=O)C3CC3)c2)ccn1 [Compound I-212, N-{5-[(cyclopropylsulfonyl)(methyl)amino]-6-methyl-3,4′-bipyridin-2′-yl}acetamide] | 
